Data on 13 compounds can be found in US20100069388A1, “N-HYDROXYACRYLAMIDE COMPOUNDS” (ASTELLAS PHARMA INC., priority 2006, published 2010).

For test [1], the system named is human histone deacetylase (partially purified from Jurkat cells). As to the kind of experiment: Test 1: Determination of histone deacetylase inhibitor activity ([3H] acetyl histone deacetylation). The test is classed as biochemical. As to conditions: partially purified human HDAC from Jurkat cells, [3H] acetyl-labeled histones, 25° C., 30 minutes; read-out: Test 1: HDAC inhibitory activity IC50. The procedure:
The partial purification of human histone deacetylase, the preparation of [^3H] acetyl histones, and the assay for histone deacetylase activity were performed basically according to the method as proposed by Yoshida et al. as follows.
The human histone deacetylase was partially purified from human T cell leukemia Jurkat cells. Jurkat cells (5×10^8 cells) were suspended in 40 mL of the HDA buffer consisting of 15 mM potassium phosphate, pH 7.5, 5% glycerol and 0.2 mM EDTA. After homogenization, nuclei were collected by centrifugation (35,000×g, 10 min) and homogenized in 20 mL of the same buffer supplemented with 1 M (NH4)2SO4. The viscous homogenate was sonicated and clarified by centrifugation (35,000×g, 10 min), and the deacetylase was precipitated by raising the concentration of (NH4)2SO4 to 3.5 M. The precipitated protein was dissolved in 10 mL of the HDA buffer and dialyzed against 4 liters of the same buffer. The dialyzate was then loaded onto a DEAE-cellulose (Whatman DE52) column (25×85 mm) equilibrated with the same buffer and eluted with 300 mL of a linear gradient (0-0.6 M) of NaCl. A single peak of histone deacetylase activity appeared between 0.3 and 0.4 M NaCl.
To obtain [^3H] acetyl-labeled histone as the substrate for the histone deacetylase assay, 1×10^8 cells of Jurkat in 20 mL of RPMI-1640 medium (supplemented with 10% FBS, penicillin (50 units/mL) and streptomycin (50 μg/mL)) were incubated with 300 MBq [^3H] sodium acetate in the presence of 5 mM sodium butyrate for 30 minutes in 5% CO2-95% air atmosphere at 37° C. in a 75 cm^2 flask, harvested into a centrifuge tube (50 mL), collected by centrifugation at 1000 rpm for 10 minutes, and washed once with phosphate-buffered saline. The washed cells were suspended in 15 mL of ice-cold lysis buffer (10 mM Tris-HCl, 50 mM sodium bisulfite, 1% Triton X-100, 10 mM MgCl2, 8.6% sucrose, pH 6.5). After Dounce homogenization (30 stroke), the nuclei were collected by centrifugation at 1000 rpm for 10 minutes, washed 3 times with 15 mL of the lysis buffer, and once with 15 mL of ice-cooled washing buffer (10 mM Tris-HCl, 13 mM EDTA, pH 7.4) successively. The pellet was suspended in 6 mL of ice-cooled water using a mixer, and 68 μl of H2SO4 was added to the suspension to give a concentration of 0.4 N. After incubation at 4° C. for 1 hour, the suspension was centrifuged for 5 minutes at 15,000 rpm, and the supernatant was taken and mixed with 60 mL of acetone. After overnight incubation at −20° C., the coagulated material was collected by microcentrifugation, air-dried, and stored at −80° C.
For the standard assay, 10 μl of [^3H] acetyl-labeled histones were added to 90 μl of the enzyme fraction, and the mixture was incubated at 25° C. for 30 minutes. The reaction was stopped by addition of 10 μl of HCl aq. The released [^3H] acetic acid was extracted with 1 mL of ethyl acetate, and 0.9 mL of the solvent layer was taken into 10 mL of toluene scintillation solution for determination of radioactivity.

The subject of test [2] is splenic cells of Lewis rats. As to the kind of experiment: Test 2: Determination of T-cell growth inhibitor activity (T lymphocyte blastogenesis, Concanavalin A, AlamarBlue). The test is classed as cell-based. The conditions noted are these: Lewis rat splenic cells, Concanavalin A 1 μg/mL, 72 hours, read-out: Test 2: T-cell growth inhibitory activity IC50. Here is the method: The T lymphocyte blastogenesis test was performed in microtiter plates with each well containing 1.5×10^5 splenic cells of Lewis rats in 0.1 mL RPMI-1640 medium supplemented with 10% fetal bovine serum (FBS), […] 2-mercaptoethanol, penicilln (100 units/mL) and streptomycin (100 μg/mL), to which Concanavalin A (1 μg/mL) was added. The cells were incubated at 37° C. in a humidified atmosphere of 5% CO2 for 72 hours. After the culture period, suppressive activities of the test compounds in T lymphocyte blastogenesis were quantified by AlamarBlue (trademark) Assay. The test samples were dissolved in DMSO and further diluted with RPMI-1640 medium and added to the culture. The activities of the test compounds were expressed as IC50.
(In general: Alamar Blue is a resazurin reagent that responds to reducing activity.)

The term IC50 denotes the concentration at which inhibition is half-maximal.

Where a name gives a salt, the structure may show the parent alone.

As for `C[C@H](CN(C)Cc1ccc(Cl)cc1)Nc1ncc(/C=C/C(=O)NO)cc1Cl` [Example 11], the IC50 in test [1] is 8.8 nM; in test [2], 6.2 nM.
For `CC(C)[C@@H](Nc1cnc(/C=C/C(=O)NO)cn1)C(=O)Nc1ccccc1` [Example 91], the IC50 in test [1] was 1.5 nM; in test [2] it was 2.6 nM.
The like results for `O=C(/C=C/c1cnc(NCCOc2ccccc2)cn1)NO` [Example 23] were, in that order, 6 nM and 21 nM.
Consider `C[C@H](CNC(=O)C1CCCCC1)Nc1cnc(/C=C/C(=O)NO)cn1` [Example 66], for which the IC50 in test [1] amounted to 3.9 nM; in test [2] it was 21 nM.
The like results for `C[C@@H](Nc1ncc(/C=C/C(=O)NO)cc1Cl)C(=O)NCC1CCCCC1` [Example 49, N^2-{3-chloro-5-[(1E)-3-(hydroxyamino)-3-oxoprop-1-en-1-yl]pyridin-2-yl}-N^1-(cyclohexylmethyl)-D-alaninamide] were, in that order, 25 nM and 17 nM.
The like results for `O=C(/C=C/c1cnc(NCCNC(=O)C2CCCCC2)c(Cl)c1)NO` [Example 10] were, in that order, 6.8 nM and 17 nM.
On to `CC(C)[C@@H](Nc1cnc(/C=C/C(=O)NO)cn1)C(=O)NCC1CCCCC1` [Example 57], for which the IC50 stood at 9.1 nM in test [1] and 4.7 nM in test [2].
The like results for `C[C@@H](Nc1cnc(/C=C/C(=O)NO)cn1)C(=O)N[C@]12CC3C[C@H](C[C@H](C3)C1)C2` [Example 88] were, in that order, 2.7 nM and 1.5 nM.
`O=C(/C=C/c1cnc(NCCNC(=O)c2ccc(Cl)cc2)c(Cl)c1)NO` [Example 3, 4-chloro-N-[2-({3-chloro-5-[(1E)-3-(hydroxyamino)-3-oxo-1-propen-1-yl]-2-pyridinyl}amino)ethyl]benzamide hydrochloride]: the IC50 in test [1] was 1.7 nM; in test [2], 18 nM.
Turning to `C[C@H](CN(C)Cc1ccccc1)Nc1cnc(/C=C/C(=O)NO)cn1` [Example 36], the IC50 in test [1] was found to be 4 nM; in test [2] it was 1.5 nM.
The like results for `C[C@@H](Nc1cnc(/C=C/C(=O)NO)cn1)C(=O)NC1CCCCCC1` [Example 87] were, in that order, 2.3 nM and 3.2 nM.
The like results for `C[C@@H](Nc1cnc(/C=C/C(=O)NO)cn1)C(=O)NC1Cc2ccccc2C1` [Example 86] were, in that order, 8.2 nM and 28 nM.
The like results for `C[C@H](CN(C)CC1CCCCC1)Nc1cnc(/C=C/C(=O)NO)cn1` [Example 39] were, in that order, 0.78 nM and 0.23 nM.
